Values joined by “and” are separate entries in the source; they are usually repeats but may differ in a detail not shown here. Identical values can stand only once. “Also recorded” adds a separate entry of the source.
Legend:
[1] = system: scopolamine induced amnesia in mice; assay: Passive avoidance test, scopolamine induced amnesia (in vivo); parameters: species or system Swiss albino male mice; details: oral 3.75, 7.5 and 15 mg/kg 1 hr prior to 1st trial, scopolamine 3 mg/kg IP, FIG. 3
Method: Passive avoidance test is widely used as experimental model to assess learning and memory functions in rodents. Scopolamine induced impairment in passive avoidance (in vivo) and inhibition of acetylcholinesterase (in vitro) in rodents are commonly employed screening tests to predict potential of a compound as acetylcholinesterase inhibitor and anti-amnesic drug (Das et al., 2002).
[…]. Mice were kept in standard housing condition with 12 h light and dark cycle. The food and water were available ad libitum.
The passive avoidance test was carried out as described by Tota et al., 2009. The mice were subjected to the passive avoidance test by placing in a compartment with light at intensity of 8 [Scale from 0 to 10 (brightest)] in a computerized shuttle box with a software programme PACS 30 (Columbus Instruments, Ohio, USA).
The light compartment was isolated from the dark compartment by an automated guillotine door. After an acclimatization period of 30 s, the guillotine door was opened and closed automatically after entry of the mouse into the dark compartment. The subject received a low-intensity foot shock (0.5 mA; 10 s) in the dark compartment. Infrared sensors monitored the transfer of the animal from one compartment to another which was recorded as transfer latency time (TLT) in seconds. […]

[2] = system: Swiss albino male mice; assay: Gross behavioral study; details: 125 mg/kg oral dose, 125 mg/kg
[3] = biological target: T1, Acetylcholinesterase (AChE) (Mus musculus, UniProt P21836); assay: Acetylcholinesterase (AChE) assay in brain (in vitro), Ellman method; type: biochemical, Swiss albino mice
T1 construct: A 10% (w/v) homogenate of brain was prepared; from tissue; host or cells: whole brain of adult Swiss albino mice; supernatant (100,000 g) of the 1% Triton X-100 treated homogenate
T1 sequence (P21836 32-614): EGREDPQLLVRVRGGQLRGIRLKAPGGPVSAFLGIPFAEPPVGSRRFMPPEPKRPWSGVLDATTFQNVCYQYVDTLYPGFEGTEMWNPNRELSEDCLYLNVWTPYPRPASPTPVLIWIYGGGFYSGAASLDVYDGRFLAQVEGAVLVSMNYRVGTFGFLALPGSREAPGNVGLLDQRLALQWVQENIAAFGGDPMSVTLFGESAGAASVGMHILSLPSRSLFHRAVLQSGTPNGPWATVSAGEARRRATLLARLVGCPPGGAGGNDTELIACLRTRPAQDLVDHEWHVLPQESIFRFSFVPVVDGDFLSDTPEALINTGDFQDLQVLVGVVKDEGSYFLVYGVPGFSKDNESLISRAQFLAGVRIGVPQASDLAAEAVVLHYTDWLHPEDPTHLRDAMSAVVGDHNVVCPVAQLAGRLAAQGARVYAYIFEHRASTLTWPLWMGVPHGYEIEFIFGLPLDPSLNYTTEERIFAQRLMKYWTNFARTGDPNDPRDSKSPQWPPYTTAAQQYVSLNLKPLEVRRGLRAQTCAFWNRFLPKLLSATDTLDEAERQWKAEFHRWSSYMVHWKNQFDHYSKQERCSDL
Method: Acetylcholinesterase (AChE) Assay in Brain (In Vitro)
The mice were perfused under mild ether anesthesia through heart with ice cooled normal saline (0.9% NaCl) to remove blood-born cholinesterase from the brain. After perfusion the whole brain was taken out. A 10% (w/v) homogenate of brain was prepared first by homogenizing in an Ultra-Turrax T25 homogenizer at a speed of 9500 rpm thrice giving intervals for few seconds in between the runs, with sodium phosphate buffer (0.03 M, pH-7)).
The brain homogenate in volume of 500 μl was mixed with 1% Triton X-100 (1% w/v in 0.03M sodium phosphate buffer, pH-7) and centrifuged at 100,000 g at 4° C. in a Beckman Ultracentrifuge (LE 80, USA), using a fixed angle rotor (80 ti) for 60 min. Supernatant was collected and stored at 4° C. for acetylcholinesterase estimation.
The assay for each sample was run in triplicate and each experiment was performed twice.
The specific activity of AChE is expressed in μM/min/mg of protein.
The test substance (dissolved in ethanol) was incubated with enzyme source in different concentrations ([…]) for 30 min at 37° C. prior to obtain kinetic profile of AChE activity. […] The AChE inhibitory activity was calculated on the basis of % decrease in AChE activity from control values i.e. AChE activity without incubation with any standard or test drug.
The results are expressed as mean±S.E.M. Statistical analysis of passive avoidance values were performed by t-test. The IC50 value was calculated by non linear regression method using GraphPad Prism software.

[4] = read-out: % Inhibition of AChE enzyme

CN(C)C(=O)Oc1ccc2c(c1)N(Cc1ccccc1)CCC2 [Compound 8k, 1-benzyl-1,2,3,4-tetrahydroquinolin-7-yl dimethylcarbamate]
improvement in learning (transfer latency time, passive avoidance) [1]: shown potential towards the improvement in learning of mice and almost comparable to the drug Rivastigmine and Tacrine
tolerability [2]: Well tolerated
cholinergic symptoms / side effects ([2]; upto 24 hrs of drug administration): no cholinergic symptoms and mortality was observed; also recorded: free from any observable side peripheral side effect; also recorded: No cholinergic symp-
IC50 [3]: 99 ± 3 nM
AChE inhibitory activity compared to Tacrine ([3]; comparison with Tacrine): almost equal or even slightly better
AChE inhibitory activity, fold better compared to the drug rivastigmine ([3]; fold better than rivastigmine): 12 fold and 10 fold
inhibition at 10 µM [3, 4]: 95.5%
inhibition at 100 µM [3, 4]: 98%

Reference: patent publication US8946261B2, “Substituted 1, 2, 3, 4-tetrahydroquinolin-7-yl carbamates as acetylcholinesterase inhibitors for treatment of Alzheimer's disease” (priority 2011, dated 2015)
